Data set [1] can be described thus: Determination of Log P. It is filed as physicochemical. To be noted: experimental lipophilicity. On the procedure:
Determination of Log P The Log P was determined using a reversed-phase HPLC method. First, seven reference compounds were examined to obtain the linear regression of the log P against the log of capacity factors by the expression: log Pow=a+b*log k. The Log P of these reference compounds was already been determined. The capacity factor k was calculated by the expression: k=(tR−t0)/t0. The retention time tR of test compound was determined on the HPLC (Agilent 1260 infinity II LC System, XTerra™ MS Cis 5μ 2.1×250 mm, methanol/water=75/25, 0.25 mL/min). The dead-time to was measured by using thiourea. The linear regression equation of the Log P against the log of capacity factors was generated in Excel: log Pow=3.049+2.429*log k, where R^2 was 0.9964. The retention time of compound 1, 2, and 7 was also determined on the HPLC under the same condition and each test was repeated three times (FIG. 5).
(§1) The experimental lipophilicity was measured by using liquid-liquid partition between n-octanol and water (“shake-flask method”) [see ref. 54]. […] The plasma protein binding comprises compounds' binding to albumin, α1-acid glycoprotein and lipoproteins once delivered to the bloodstream. This property was evaluated for compounds 1 and 2 by equilibrium dialysis [see ref. 56], where two chambers were separated by a dialysis membrane (MWCO 8 kD). The plasma protein bindings of 1 and 2 are 87.2% and 88.7%, respectively (see FIGS. 20 and 6). Therefore, the high plasma free fraction of compounds 1 and 2 (>10%) would allow enough free drug concentration in blood stream to reach the brain targets.

A short description of data set [2]: Plasma protein binding assay (equilibrium dialysis, RED device). It is filed as in vitro ADME. The following applies: rat plasma. Here is the method:
Disposable RED device inserts (product 90006) were from Thermos Scientific (Waltham, Mass.). Each insert was made of two side-by-side chambers separated by a vertical cylinder of dialysis membrane (MWCO 8,000) validated for minimal non-specific binding. A stock solution of the test compound in DMSO was spiked into the rat plasma to reach a concentration of 10 μM. 400 μL of sample solution was placed into the sample chamber of the RED device, and 600 μL of phosphate-buffered saline (PBS) was added to the buffer chamber of the RED device. Samples were prepared in triplicates. The plate was covered with aluminum sealing cover and incubated at 37° C. on an orbital shaker at approximately 200 rpm for 5 h. After incubation, 300 μL of post-dialysis samples from the buffer and sample chambers were transferred to different microcentrifuge tubes. To the buffer sample was added 300 μL of plasma, and an equal volume of buffer was added to the collected plasma sample. 600 μL of cold acetonitrile was added to the samples, and the samples were vortexed and incubated for 30 min on ice and then were centrifuged at 14000 rpm for 10 min. Supernatant was transferred to vial for HPLC analysis (XTerra™ MS C18 5μ, 2.1×250 mm column; Gradient elution from 5% to 90% B in 30 min; 0.1 M ammonium formate in water (A) and acetonitrile (B); UV 254 nm; 100 μL of injection volume). The percentage of the test bound compound was calculated as % Free=(Concentration in buffer chamber/Concentration in plasma chamber)×100%; % Bound=100%−% Free (FIG. 6).
as §1

Data set [3] can be described thus: Plasma stability in rat serum. Type of data set: in vitro ADME. The following applies: 37° C., diltiazem as positive control. On the procedure:
Compound stability in rat serum was examined using a published method. [See ref. 57] Rat serum (100 μL, Abeam, Inc, No. ab7488) and test compound or control compound (2.5 μL, 1 mM in DMSO) was added to the individual tube. The tube was vortexed and incubated at 37° C. During the incubation, aliquots of 50 μL samples were quenched with ice-cold acetonitrile at 0, 15, 30, 60, and 120 min time points, respectively. After mixing, the quenched samples were centrifuged, and the supernatant was withdrawn for analysis by HPLC (Agilent 1260 infinity II LC System, XTerra™ MS C18, 5μ, 2.1×250 mm, 20 mM ammonium formate (A)/acetonitrile (B), 0.25 mL/min, gradient of 5% to 100% B). The samples were assayed at least three times. Compound 1-OH was used as internal standard while diltiazem was used as a positive control. The percentage remaining was calculated by (peak area at the specific time point)/(peak area at 0 min)×100% (FIG. 7).
(§2) The in vitro plasma and liver microsomal stability of 1 and 2 were studied by incubating the test compounds in rat serum and rat liver microsomes as well as NADPH cofactor, respectively, using previously published methods [see refs. 57, 58]. […] The solution stability of 1 was evaluated with buffer solutions at pH 5.0, 7.4 and 9.4, respectively (FIGS. 10 and 20) [see refs. 61].

Data set [4] is described as follows: Microsomal stability in rat liver microsomes. The following applies: rat liver microsomes with NADPH, ML128 as positive control. Type of data set: in vitro ADME. Here is the method: Compound stability in rat liver microsomal was tested using a published method. [see refs. 57, 58] In a vial 1.5 μL of test compound (1 mM in DMSO stock solution) was mixed with 432 μL of PBS (50 mM, pH 7.4). The mixture was kept at 37° C. for 10 min before adding 13 μL of Sprague-Dawley rat liver microsomes (Sigma-Aldrich, No. M9066). The vial was vortexed and shaken at 37° C. for 5 min, followed by addition of 50 μL of NADPH (10 mM in PBS stock solution) to start the reaction. The mixture was incubated at 37° C. for 0, 5, 15, 30, 45 min, respectively, and quenched by addition of 250 μL of ice-cold acetonitrile and 3 μL of the internal standard (0.5 mM in DMSO). The quenched solutions were centrifuged at 10,000 g for 15 min. The supernatant was collected and quantitated by RP-HPLC (Phenomenex Luna® column 5 μC18, 100 Å, 250×4.6 mm; 0.7 mL/min, 15 min, Acetonitrile/water/0.1% FA). The procedure was repeated three times for each compound. Compound 1-OH was used as internal standard and compound ML128 served as positive control. The percentage of remaining intact test-compound was calculated by (peak area at the specific time point)/(peak area at 0 min)×100%. Each procedure was repeated three times (FIGS. 8 and 9). For FIG. 8, the natural logarithm (In) of peak area ratio (test compound peak area/internal standard peak area) was plotted against time and the gradient of the line was determined. Subsequently, the half-life (t1/2) min was calculated as 0.693/k, where the elimination rate constant (k) equals to negative gradient. V (μL/mg) was obtained as a ratio of volume of incubation (μL)/protein in the incubation (mg). Finally, the intrinsic clearance (CLint) (μL/min/mg protein) was calculated as V×0.693/t1/2.
as §2
(In general: Microsomes from liver hold many membrane-bound enzymes, among them those of drug oxidation.)

Data set [5] has as its target T1, mGluR2 (Homo sapiens, UniProt Q14416).
T1 construct: expressed in transfected cells
The following applies: calcium flux, Gα15 or Gα16 forced coupling; read-out: previously reported mGluR2 EC50; cited from earlier work. On the technique in general: Calcium assays in cells follow changes in intracellular calcium, usually with a dye or a luminescent sensor.

Data set [6] in a line: Ex vivo whole body biodistribution of [11C]1. Type of data set: in vivo, Sprague Dawley rats. On the procedure: The quantitative biodistribution of [^11C]1 was done using 16 healthy Sprague Dawley rats (weight 330-370 g). After anesthetization (2% isoflurane with oxygen flow of 1.5 L/min) the rats were administrated with the [^11C]1 (30-42 MBq (0.81-1.14 mCi) using tail vein injection and sacrificed by decapitation at the time points 5, 20, 30 or 40 min after administration of the radioactivity. The tissue samples including blood, midbrain, cerebellum, cortex, lung, heart, liver, spleen, kidney and muscle were rapidly collected into pre-weighted gamma-counting tubes and measured with standards (samples of [^11C]1) using PerkinElmer Wizard2 2480 gamma-counter. Tubes were weighted, and the net mass of the tissue samples was determined and the percent of the injected radioactivity (% ID/g) in the samples was calculated.
The ex vivo biodistribution was performed in 16 normal male Sprague Dawley rats after intravenous injection of [^11C]1 at several time points (5, 20, 30 and 40 min). The uptake value is expressed in the unit of % ID/g. […] The highest accumulation was measured in the liver (2.73±0.02% ID/g) followed by kidney (1.05±0.07% ID/g), spleen (0.67±0.05% ID/g), lung (0.59±0.04% ID/g), and heart (0.58±0.05% ID/g). […] The average accumulation of [^11C]1 in the rat brain at 5 min was (0.49±0.07% ID/g) (FIG. 22).

The target of data set [7] is mGluR2 in rat brain (Rattus norvegicus, UniProt P31421). Description: In vivo PET imaging of [11C]1 in rat brain with blocking studies.
Chain of mGluR2 in rat brain (P31421 19-872): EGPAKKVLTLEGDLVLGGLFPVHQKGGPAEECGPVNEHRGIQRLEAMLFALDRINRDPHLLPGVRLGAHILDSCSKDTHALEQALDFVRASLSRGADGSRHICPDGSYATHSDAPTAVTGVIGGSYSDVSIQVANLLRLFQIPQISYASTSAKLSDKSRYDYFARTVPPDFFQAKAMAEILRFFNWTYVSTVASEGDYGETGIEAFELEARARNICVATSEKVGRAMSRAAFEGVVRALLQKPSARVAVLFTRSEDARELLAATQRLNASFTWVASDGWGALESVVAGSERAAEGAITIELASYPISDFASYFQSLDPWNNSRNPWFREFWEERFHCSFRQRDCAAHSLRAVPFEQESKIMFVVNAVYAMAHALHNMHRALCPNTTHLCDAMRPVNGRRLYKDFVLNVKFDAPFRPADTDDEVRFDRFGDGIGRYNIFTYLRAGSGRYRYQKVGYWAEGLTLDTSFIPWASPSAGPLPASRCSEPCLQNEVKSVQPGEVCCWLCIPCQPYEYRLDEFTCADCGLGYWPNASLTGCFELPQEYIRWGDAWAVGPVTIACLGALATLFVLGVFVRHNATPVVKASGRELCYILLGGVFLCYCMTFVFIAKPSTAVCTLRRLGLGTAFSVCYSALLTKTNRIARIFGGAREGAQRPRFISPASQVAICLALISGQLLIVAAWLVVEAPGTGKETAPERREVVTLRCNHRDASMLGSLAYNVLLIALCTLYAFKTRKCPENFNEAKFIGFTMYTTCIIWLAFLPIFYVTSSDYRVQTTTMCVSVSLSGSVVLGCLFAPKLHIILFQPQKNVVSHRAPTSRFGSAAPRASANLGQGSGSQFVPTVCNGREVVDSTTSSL
Method: The rats were adjusted into the scanner for imaging position (Triumph II Preclinical Imaging System, Trifoil Imaging, LLC, Northridge, Calif.). The vital signs such as heart rate and/or breathing were monitored throughout the imaging. […] The “cold” compounds were administered (i.v., 4 mg/kg) 10 min before the radioactivity. CT scan was performed after every PET imaging study to obtain anatomical information and correction for attenuation. […] The ROIs, i.e., whole brain, thalamus, cerebellum, striatum, and cortex, were drawn onto coronal PET slices according to the brain outlines as derived from the rat brain atlas and corresponding TACs (time-activity curves) were created by PMOD 3.2 (PMOD Technologies Ltd., Zurich, Switzerland). Percent changes between the control and blocking studies were calculated in the selected brain areas at the 10-30 min time window after injection of [^11C]1.
The characterization of [11C]1 was conducted with rat (male Sprague-Dawley) studies. […] The rats were adjusted into the scanner for imaging position (Triumph II, Trifoil Imaging Inc, Northridge, Calif.). The vital signs such as heart rate and/or breathing were monitored throughout the imaging. […] When the blocking studies were done the imaging procedures started with the baseline study using [^11C]1 followed by 2 hrs later the blocking agent and another administration of [^11C]1 in the same animal. The blocking agent was administered intravenously 2 min before injection of the second [^11C]1 if self-blocking, 10 min before [^11C]1 if blocking was with JNJ The dynamic PET data was acquired starting from the injection of radioactivity and continued for 60 min. After the dynamic PET data acquisition CT imaging was done to obtain data for attenuation as well as anatomical information of the brain. […] Percent changes between the control and blocking studies were calculated in all brain areas. […]
The target in data set [8] is recombinant human P-gp (Homo sapiens, UniProt P08183). Nature of the data set: P-gp ATPase assay (Pgp-Glo assay). Type of data set: biochemical. The following applies: human P-gp membrane, verapamil as positive control. Here is the method:
P-gp ATPase activity was measured with the Pgp-Glo™ assay system with human P-gp membrane by following the manufacturer's instructions (Promega, Co. USA). The assay relies on the ATP dependence of the light-generating reaction of firefly luciferase. Briefly, 25 μg of P-gp membrane was incubated at 37° C. with one of these samples including Na3VO4 (100 μM), solvent control (0.1% DMSO), quercetin (100 μM), the test compound (200 μM), verapamil (100 μM), verapamil (100 μM) plus the test compound (100 μM). The ATPase reaction was initiated by addition of MgATP (5 mM) and followed by incubation for 40 min at 37° C. The reaction was stopped, and the remaining unmetabolized ATP was detected as a luciferase-generated luminescence signal by addition of ATP detection reagent. Following a room-temperature signal-stabilization period (20 min), luminescence was read on a Veritas microplate luminometer (Tuner Designs, San Francisco, Calif.). P-gp ATPase activity was presented as a drop-in luminescence of samples compared to that treated with Na3VO4.
We further evaluated compounds 1, 2, and 7 using Pgp-Go™ assay to investigate whether the brain penetration will be affected by P-glycoprotein (P-gp) efflux transporter. The Pgp-Go™ assay [see ref. 63] was carried out on recombinant human P-gp in a cell membrane fraction. […]

Structures are written as SMILES.

T1 sequence (Q14416 19-872): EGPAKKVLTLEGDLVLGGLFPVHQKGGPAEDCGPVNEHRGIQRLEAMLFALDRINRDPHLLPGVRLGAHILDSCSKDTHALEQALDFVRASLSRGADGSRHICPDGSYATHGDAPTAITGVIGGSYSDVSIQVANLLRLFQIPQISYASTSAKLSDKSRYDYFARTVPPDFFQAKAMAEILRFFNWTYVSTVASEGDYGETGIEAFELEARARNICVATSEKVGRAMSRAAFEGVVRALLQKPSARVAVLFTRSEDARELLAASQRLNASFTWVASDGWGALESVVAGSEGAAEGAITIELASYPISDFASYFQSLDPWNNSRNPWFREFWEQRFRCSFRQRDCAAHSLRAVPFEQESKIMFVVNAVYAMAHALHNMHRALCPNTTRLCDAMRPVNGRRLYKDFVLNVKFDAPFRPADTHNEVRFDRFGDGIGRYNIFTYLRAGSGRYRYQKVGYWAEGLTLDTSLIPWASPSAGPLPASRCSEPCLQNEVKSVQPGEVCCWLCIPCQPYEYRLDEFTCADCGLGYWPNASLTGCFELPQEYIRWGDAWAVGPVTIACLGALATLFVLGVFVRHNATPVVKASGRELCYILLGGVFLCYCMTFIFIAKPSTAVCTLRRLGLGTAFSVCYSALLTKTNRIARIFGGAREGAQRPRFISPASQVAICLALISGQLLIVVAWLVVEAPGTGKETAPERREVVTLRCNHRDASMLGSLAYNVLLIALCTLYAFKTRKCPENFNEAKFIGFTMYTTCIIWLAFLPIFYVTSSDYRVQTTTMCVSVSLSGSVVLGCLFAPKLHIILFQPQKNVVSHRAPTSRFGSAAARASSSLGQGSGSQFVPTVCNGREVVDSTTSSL
Chain of recombinant human P-gp (P08183 whole entry): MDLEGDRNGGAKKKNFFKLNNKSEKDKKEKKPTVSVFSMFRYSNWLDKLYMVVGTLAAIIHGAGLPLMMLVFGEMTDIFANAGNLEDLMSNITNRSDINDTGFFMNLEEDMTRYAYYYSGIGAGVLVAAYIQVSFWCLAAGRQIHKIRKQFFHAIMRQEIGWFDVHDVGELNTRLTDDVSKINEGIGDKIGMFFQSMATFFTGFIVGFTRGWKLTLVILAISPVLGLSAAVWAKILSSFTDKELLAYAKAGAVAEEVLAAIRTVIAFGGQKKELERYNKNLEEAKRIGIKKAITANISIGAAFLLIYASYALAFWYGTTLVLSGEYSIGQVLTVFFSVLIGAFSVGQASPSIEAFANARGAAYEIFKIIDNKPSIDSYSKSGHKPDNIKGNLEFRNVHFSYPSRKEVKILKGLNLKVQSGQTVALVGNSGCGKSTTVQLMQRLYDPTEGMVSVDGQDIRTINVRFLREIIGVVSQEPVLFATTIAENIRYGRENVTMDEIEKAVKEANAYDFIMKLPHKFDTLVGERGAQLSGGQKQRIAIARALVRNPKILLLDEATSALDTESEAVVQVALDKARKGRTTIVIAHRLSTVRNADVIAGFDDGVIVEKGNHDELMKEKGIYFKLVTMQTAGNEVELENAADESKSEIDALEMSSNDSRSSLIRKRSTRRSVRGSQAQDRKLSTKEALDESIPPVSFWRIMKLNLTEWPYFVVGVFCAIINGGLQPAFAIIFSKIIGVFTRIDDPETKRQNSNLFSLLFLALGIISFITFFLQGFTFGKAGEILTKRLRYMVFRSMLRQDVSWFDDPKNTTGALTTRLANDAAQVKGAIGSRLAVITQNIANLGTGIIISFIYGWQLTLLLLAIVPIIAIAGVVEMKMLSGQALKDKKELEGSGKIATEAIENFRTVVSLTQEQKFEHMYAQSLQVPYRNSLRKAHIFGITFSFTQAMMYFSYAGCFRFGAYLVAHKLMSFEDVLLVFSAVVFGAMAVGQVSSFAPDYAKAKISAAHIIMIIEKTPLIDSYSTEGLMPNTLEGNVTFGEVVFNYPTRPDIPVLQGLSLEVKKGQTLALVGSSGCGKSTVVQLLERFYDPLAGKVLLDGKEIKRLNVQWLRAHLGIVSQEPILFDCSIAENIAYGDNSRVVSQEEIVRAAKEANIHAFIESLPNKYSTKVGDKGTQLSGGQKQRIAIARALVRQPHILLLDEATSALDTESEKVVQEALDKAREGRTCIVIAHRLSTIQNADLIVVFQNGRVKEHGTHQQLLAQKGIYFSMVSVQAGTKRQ

For the compound `COc1cc(C(F)(F)F)ccc1C1CCN(Cc2nc3nccc4c3n2CCC4)CC1` [Compound 2], the “Log P” value in data set [1] is given as 3.86. In data set [2] (equilibrium dialysis, 10 μM), this compound registered a plasma protein binding of 88.7%. Also, the fraction unbound at 5 h, 10 μM in data set [2] (read-out: plasma free fraction) is above 0.1. Moreover, the “stability in rat plasma” value in data set [3] was “much more stable than diltiazem”. Further, the “microsomal stability” value in data set [4] was “reasonable microsomal stability”. Also, in data set [5], the EC50 was 5 nM.

`Cn1c(CN2CCC(c3ccc(C(F)(F)F)cc3O[11CH3])CC2)nc2ncccc21` [[^11C]1]: the “average accumulation in the rat brain” value in data set [6] (i.v. [11C]1, brain at 5 min) amounted to 0.49±0.07 % ID/g. Moreover, the “highest accumulation in heart” value in data set [6] (rat, i.v. [11C]1, heart) came to 0.58±0.05 % ID/g. Besides, the “highest accumulation in kidney” value in data set [6] (rat, i.v. [11C]1, kidney) was 1.05±0.07 % ID/g. The “highest accumulation in liver” value in data set [6] (rat, i.v. [11C]1, liver) is recorded as 2.73±0.02 % ID/g. In addition, the “highest accumulation in lung” value in data set [6] (rat, i.v. [11C]1, lung (maximum at 20 min)) is 0.59±0.04 % ID/g. The “highest accumulation in spleen” value in data set [6] (rat, i.v. [11C]1, spleen) is on record as 0.67±0.05 % ID/g. In data set [7] (rat PET, n=9), this compound had an SUVmax in brain of 1.8±0.2. Moreover, the “maximum SUV (time-activity curves)” value in data set [7] (rat PET, thalamus at 2 min post-injection) is reported as 2.3.

Consider `Fc1ccc(N2CCN(Cc3ccn4c(CC5CC5)nnc4c3C(F)(F)F)CC2)c(F)c1` [Compound 3, 8-Trifluoromethyl-3-cyclopropylmethyl-7-[(4-(2,4-difluorophenyl)-1-piperazinyl)methyl]-1,2,4-triazolo[4,3-a]pyridine, reference compound], for which, in data set [7] (4 mg/kg i.v. 10 min before [11C]1, 10-30 min time window), the “decrease of [11C]1 uptake in different brain areas after pretreatment” value is on record as 28-37%.

`COc1cc(C(F)(F)F)ccc1OC[C@@H]1[C@H]2CN(Cc3nc4ncccc4n3C)C[C@@H]12` [Compound 7] had a log partition coefficient (log P) in data set [1] (n-octanol/water) of 3.3. The “P-gp substrate assessment / P-gp ATPase activity” value in data set [8] was “a potential P-gp substrate”.

In general, Log P refers to a log measure of how a compound divides between an organic and an aqueous phase. Higher therefore signals a more lipophilic compound. The term EC50 denotes the concentration needed to bring the measured effect to its halfway point. A word on the log P: it is a log measure of how a compound divides between an organic and an aqueous phase. Low readings indicate lower lipophilicity, high ones higher lipophilicity.

Source of the values: patent publication US20210246140A1, “MODULATORS OF METABOTROPIC GLUTAMATE RECEPTOR 2” (The General Hospital Corporation, priority 2020, published 2021).
